Experimental data published in patent US11236102B2, “Oxabicycloheptane prodrugs” (Lixte Biotechnology, Inc., priority 2015, dated 2022).
Where two headings read alike, the source gives them in different places.

Legend:
[1] = rat, in vivo
[2] = Radiation dose enhancement by compound 100; settings: compound 100 treatment
[3] = test system: broad spectrum of human cancer cell lines; assay: Activity of compound 100 against human cancer cell lines; type: cell-based
[4] = Stability in the presence of microsomes; type: in vitro ADME; settings: mouse, rat, dog, monkey, and human microsomes; relative to verapamil
[5] = in vivo; type: in vivo; settings: rat, in vivo
Protocol: 100 was administrated via iv route at 0.5, 1.0 and 1.5 mg/kg into SD rats. The blood, liver and brain tissue samples were collected at predetermined times from rats.
Twelve (12) female SD rats per group were dosed by iv with 100. The rats were fasted overnight prior to dosing, with free access to water. Foods were withheld for 2 hours post-dose. Blood, liver and brain tissue samples in two animals each group were collected at each time point, within 10% of the scheduled time for each time point. Two extra animals were used for analytic method development. Blood (>0.3 mL) were collected via aorta abdominalis in anaesthetic animals into tubes containing heparin at 15 min, 1, 2, 6, 10 and 24 hours after iv administration. Liver and brain tissues were collected immediately after animal death. The liver and brain tissues were excised and rinsed with cold saline to avoid blood residual. Upon collection, each sample was placed on ice and the blood samples were subsequently centrifuged (4° C., 11000 rpm, 5 min) to separate plasma. The obtained plasma, liver and brain tissue samples were stored at −70° C. until LC-MS/MS analysis.
AUC0-∞ (AUCINF) is the area under the plasma concentration-time curve with last concentration extrapolated based on the elimination rate constant.

[6] = test system: PP2A in circulating white blood cells; assay: Inhibition of PP2A in circulating white blood cells after slow iv 100; type: in vivo; settings: rat
[7] = Pharmacokinetic study of 151 (iv, oral) in SD rats: 151 and 100 in plasma; type: in vivo; settings: male, rat, in vivo, iv, 1 mg/kg, 5 h
Protocol: The absolute bioavailability was evaluated.
To each sample, 160 μL of acetonitrile were added.
The mass spectrometer was operated in the positive mode.
Quantification was achieved by the external standard method.
Calibration Curve for Plasma Samples
LB100 concentrations of the LB151 plasma samples were also measured and pharmacokinetic parameters were calculated.

[8] = test system: U251 human GBM cells; settings: compound 100 ip plus radiation
Protocol: Compound 100 is a serine-threonine phosphatase inhibitor that potentiates the activity of standard chemotherapeutic drugs and radiation. The mechanism of potentiation is impairment of multiple steps in a DNA-damage repair process and inhibition of exit from mitosis. […] Mice bearing subcutaneous (sc) xenografts of U251 human GBM cells were treated with compound 100 intraperitoneally together with radiation, each given daily for 5 days×3 courses.

[9] = in vivo; settings: rat, iv, 1.4 mg/kg
Protocol: 113 was dissolved in 4% NaHCO3 in saline for IV administration. The detailed procedure of dosing solution preparation was presented in Appendix I.
15 animals were placed on the study. The animals in IV arm were free access to food and water. For PO dose group, the animals were fasted overnight prior to dosing and the food was resumed 4 hours postdose.
The IV injection was conducted via foot dorsal vein. PO via oral gavage.
Blood collection: The animal is restrained manually. Approximately 200 μL of blood/time point is collected into sodium heparin tube via cardiac puncture for terminal bleeding (anesthetized under carbon dioxide). Blood sample will be put on ice and centrifuged to obtain plasma sample (2000 g, 5 min under 4° C.) within 10 minutes.
Liver collection: The animal will be euthanized with carbon dioxide inhalation. Open abdominal cavity with scissor to expose internal organs. Hold the carcass in an upright position and allow the organs to fall forward. Cut the connective tissues and remove the organs. Then the organs are rinsed with cold saline, dried on filtrate paper, placed into a screw-top tube and weighed, snap frozen by placing into dry-ice immediately.
Brain collection: Make a mid-line incision in the animals scalp and retract the skin. Using small bone cutters and rongeurs, remove the skull overlying the brain. Remove the brain using a spatula and rinse with cold saline, dried on filtrate paper, placed into a screw-top tube and weighed, snap frozen by placing into dry-ice immediately. […] Plasma, brain and liver samples were stored at approximately −80° C. until analysis. The backup samples will be discarded after three weeks after in-life completion unless requested. The unused dosing solutions will be discarded within three weeks after completion of the study.
Pharmacokinetic Analysis Software: The PK parameters were determined by non-compartmental model of non-compartmental analysis tool, Pharsight Phoenix WinNonlin® 6.2 software. […] Concentration data within 80%-120% of LLOQ was considered within normal instrumental variation and presented in the results. Terminal t1/2 calculation: Time points were automatic selected by “best fit” model for terminal half life estimation as the first option. Manual selection was applied when “best fit” could not well define the terminal phase. Results

[10] = female rats, day 4, cited from earlier work
[11] = female dogs, day 4, cited from earlier work
[12] = rat, in vivo; remark: listed apart in the source
[13] = fostriecin iv daily for 5 days, phase I trials; cited from earlier work
[14] = male, SD, Liver-plasma concentration ratio of 100
[15] = male, SD, liver concentration of 100
[16] = male, SD, plasma concentration of 100
[17] = male, Sprague-Dawley, Liver-plasma concentration ratio of 100

CN1CCN(C(=O)C2C3CCC(O3)C2C(=O)O)CC1 (stereo not shown) [Compound 100]
passage of blood brain barrier (BBB) [1]: does not readily pass the blood brain barrier (BBB) | radiation dose enhancement factor [2]: 1.45 | IC50 [3]: 1000 to 3000 nM | stability in presence of microsomes [4]: stable relative to verapamil | half-life ([5]; Sprague-Dawley): ≤ 1 h | mean Cmax in plasma ([5]; female, Sprague-Dawley, iv, 1.5 mg/kg): 1110 to 3664 ng/mL | detectability in liver and brain tissue samples ([5]; iv): detectable | AUClast in brain ([5]; iv, 1.5 mg/kg): 10.8 to 125.5 ng·h/g | AUClast in liver ([5]; iv, 1.5 mg/kg): 758.6 to 9081.0 ng·h/g | inhibition of PP2A in circulating white blood cells ([6]; slow iv 100 at 0.375 mg/kg): 9% | inhibition of PP2A in circulating white blood cells ([6]; slow iv 100 at 0.75 mg/kg): 15% | inhibition of PP2A in circulating white blood cells ([6]; slow iv 100 at 1.5 mg/kg): 25% | Plasma Concentrations of 100 ([7]; Sprague-Dawley (SD)): 5.10 ng/mL | Plasma Concentrations of 100 ([7]; Sprague-Dawley): 10.2 ng/mL | recurrence of the remaining 40% of xenografts vs radiation alone [8]: two months later | xenografts eliminated ([8]; daily for 5 days x 3 courses, 6 months plus follow-up): 60% | plasma concentration of 100 ([9]; male, SD, 6 hr): 3.25 ng/mL | Kp at 0.25 hr [9, 14]: 4.1 | Kp at 1 hr [9, 14]: 4.98 | concentration at 0.25 hr [9, 15]: 2090 ng/g | concentration at 1 hr [9, 15]: 1360 ng/g | concentration at 2 hr [9, 15]: 425 ng/g | concentration at 6 hr [9, 15]: 23.8 ng/g | concentration at 0.25 hr [9, 16]: 510 ng/mL | concentration at 1 hr [9, 16]: 273 ng/mL | concentration at 6 hr [9, 16]: 3.25 ng/mL | AUC(0-t) ratio of liver over plasma ([9]; male, Sprague-Dawley): 399 | Liver-plasma concentration ratio of 100 ([9]; male, Sprague-Dawley, 6 hr): 7.32 | Kp at 2 hr [9, 17]: 4.95 | Kp at 6 hr [9, 17]: 7.32 | AUC(0-last) in liver [9]: 2804 ng·h/g | AUC(0-∞) in liver [9]: 2834 ng·h/g | AUClast-liver/AUClast-plasma of 100 [9]: 399 | % AUC* Extrapolated ([10]; 0.5 mg/kg): 5.6% | Co ([10]; 0.5 mg/kg): 1497 ng/mL | DN AUClast ([10]; 0.5 mg/kg): 904 | % AUC* Extrapolated ([10]; 0.75 mg/kg): 27% | Co ([10]; 0.75 mg/kg): 2347 ng/mL | DN AUClast ([10]; 0.75 mg/kg): 921 | % AUC* Extrapolated ([10]; 1.25 mg/kg): 17% | Co ([10]; 1.25 mg/kg): 3849 ng/mL | DN AUClast ([10]; 1.25 mg/kg): 1887 | Co ([11]; 0.15 mg/kg): 566 ng/mL | Co ([11]; 0.30 mg/kg): 857 ng/mL | Co ([11]; 0.50 mg/kg): 1930 ng/mL | oral bioavailability [12]: 1% | plasma level after oral administration [12]: little is present in plasma after oral administration

C[C@@](O)(/C=C/[C@H]1CC=CC(=O)O1)[C@@H](C[C@@H](O)\C=C/C=C\C=C\CO)OP(=O)(O)O [fostriecin]
dose limiting toxicity [13]: Dose limiting toxicity was not achieved | major toxicities [13]: reversible non-cumulative increases in serum creatinine and hepatic enzymes
